Test results published in US20090047246A1, “NOVEL INHIBITORS OF HEPATITIS C VIRUS REPLICATION” (InterMune, Inc., priority 2007, published 2009).
Like-named read-outs stand apart in the source and are kept apart here.

Assays:
HCV NS3/4a protease = HCV NS3/4a protease activity, effect of additives on reaction rate (Assay Example 1); assay type: biochemical, HCV genotype 1b-K2040; details: base buffer 50 mM Tris-HCl pH 7.5, 15% glycerol; for Conclusion (effect of additive on NS3/4a protease reaction rate): 0.5 μM FRET substrate, additive at the concentrations tested
Method: In order to identify reaction conditions that give high levels of HCV NS3/4a protease activity, several additives were analyzed to determine their effect on reaction rate. The base buffer used was 50 mM Tris-HCl, pH 7.5 containing 15% glycerol. The FRET-based assay substrate used (sequence: Ac-DE-Dap(QXL520)-EE-Abu-ψ-[COO]-AS-Cys(5-FAMsp)-NH2) was obtained from Anaspec, Inc. (San Jose, Calif.). The NS4a surrogate peptide used (KGSVVIVGRIILSGRK) was obtained from Midwest Biotech (Fishers, Ind.). The NS3 enzyme used was the benchmark wild-type full length enzyme derived from HCV genotype 1b-K2040. The reaction rate for the NS3 catalyzed hydrolysis of 0.5 μM substrate in base buffer was used as a reference.

NS3 Helicase = NS3 Helicase (Hepatitis C virus genotype 1b, UniProt P26663); assay: Activity of NS3 Helicase in Presence of Detergent with or without LDAO (Table A); assay type: biochemical
Method: In another embodiment, at least one detergent is added to a solution containing NS3 to improve the helicase activity. In some embodiments, the detergent is selected from the group consisting of LDAO, Tween 20, Triton X100, Pluronic F127, CHAPS, β-octyl glucoside, laurylmaltoside, N-lauroylsarcosine, and hexadecyltrimethylammonium bromide. In a preferred embodiment, LDAO is added. In a more preferred embodiment, at least one additional detergent in added to the solution containing NS3 and LDAO. In some embodiments, the additional detergent(s) is/are selected from the group consisting of Tween 20, Triton X100, Pluronic F127, CHAPS, β-octyl glucoside, laurylmaltoside, N-lauroylsarcosine, and hexadecyltrimethylammonium bromide. Table A represents the helicase activity of NS3 in the presence of LDAO and at least one additional detergent; and, in the absence of LDAO and the presence of at least one other detergent.

HCV NS3 helicase = molecular target: T1, HCV NS3 helicase (Hepatitis C virus genotype 1b, UniProt P26663); assay: HCV Helicase Prompt FRET Assay (Example A); assay type: biochemical
T1 construct: full-length NS3 (1-631), purified at Array BioPharma
Summary of the method: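 Full-length NS3 (1-631), 5 or 6 nM, preincubated 5 min with compound, then unwinds 50 nM FAM/BHQ-1 duplex substrate with 250 nM capture strand and 300 μM ATP in 25 mM MOPS pH 7.0, 1.5 mM MgCl2, 0.005% Triton X-100, 2% DMSO. Fluorescence (485/535 nm) followed ~30 min at room temperature; IC50 from initial rates by 4- or 5-parameter fit.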

NS4a surrogate peptide = test system: T2, NS4a surrogate peptide
T2 sequence: KGSVVIVGRIILSGRK

[1] = plus LDAO 0.6 mM, detergent 0.020%
[2] = plus LDAO 0.6 mM, detergent 0.020%, control = 100
[3] = plus LDAO 0.6 mM, detergent 0.075%
[4] = plus LDAO 0.6 mM, detergent 0.075%, control = 100
[5] = Table 36, compounds made using Scheme 54, read-out: IC50 Activity
[6] = Table 35, compounds made using Scheme 53, read-out: IC50 Activity
[7] = plus LDAO 0.6 mM, detergent 0.05 mM
[8] = plus LDAO 0.6 mM, detergent 0.05 mM, control = 100
[9] = plus LDAO 0.6 mM, detergent 0.2 mM
[10] = plus LDAO 0.6 mM, detergent 0.2 mM, control = 100

Chain of NS3 Helicase (P26663 1027-1657): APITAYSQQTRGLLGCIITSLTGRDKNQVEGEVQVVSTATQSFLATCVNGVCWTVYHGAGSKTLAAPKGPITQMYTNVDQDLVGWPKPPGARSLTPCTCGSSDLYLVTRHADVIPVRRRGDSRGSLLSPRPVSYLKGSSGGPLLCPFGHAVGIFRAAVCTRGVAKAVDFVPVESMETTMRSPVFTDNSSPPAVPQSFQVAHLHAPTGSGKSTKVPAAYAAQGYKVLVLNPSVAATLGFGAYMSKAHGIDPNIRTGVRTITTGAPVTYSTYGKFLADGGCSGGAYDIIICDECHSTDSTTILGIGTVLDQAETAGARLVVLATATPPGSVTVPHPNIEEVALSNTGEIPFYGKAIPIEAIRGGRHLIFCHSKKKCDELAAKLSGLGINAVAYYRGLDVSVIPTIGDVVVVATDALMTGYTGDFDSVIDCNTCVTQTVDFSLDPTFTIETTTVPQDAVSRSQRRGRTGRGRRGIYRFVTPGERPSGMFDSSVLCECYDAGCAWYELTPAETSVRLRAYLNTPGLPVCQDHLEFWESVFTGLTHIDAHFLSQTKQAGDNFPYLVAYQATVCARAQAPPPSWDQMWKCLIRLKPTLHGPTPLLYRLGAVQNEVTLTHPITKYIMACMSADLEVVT
T1 sequence (P26663 1027-1657): as above

C[C@H](CCC(=O)NCCC[N+](C)(C)CCCS(=O)(=O)[O-])[C@H]1CC[C@H]2[C@@H]3[C@H](O)C[C@@H]4C[C@H](O)CC[C@]4(C)[C@H]3C[C@H](O)[C@]12C [CHAPS]
Conclusion (effect of additive on NS3/4a protease reaction rate) (HCV NS3/4a protease): CHAPS at 2 mM increased activity
Slope (NS3 Helicase; [1]): −0.77 mP/min
Activity (NS3 Helicase; [2]): 126%
Slope (NS3 Helicase; [3]): −1.16 mP/min
Activity (NS3 Helicase; [4]): 190%

O[C@@H](CS)[C@@H](O)CS [DTT]
Conclusion (effect of additive on NS3/4a protease reaction rate) (HCV NS3/4a protease): 10 and 30 mM DTT improve activity.

CC(C)(C)OC(=O)N(c1cc(Cl)cc2c(Cn3cc(CC(=O)O)c4ccc(Br)cc43)csc12)C1CC1 [Example 774]
IC50 (HCV NS3 helicase; Table 38, compounds made using Scheme 56, Scheme 57 and Scheme 61, read-out: IC50 Activity): < 10 µM

Cc1sc2ccc(Cl)cc2c1Cn1cc(CC(=O)O)c2ccc(Br)cc21 [Example 777]
IC50 (HCV NS3 helicase; [5]): 10 to 50 µM

Cc1sc2ccc(Cl)cc2c1Cn1cc(CC(=O)O)c2ccc(-c3cc(N)cc(N)c3)cc21 [Example 778]
IC50 (HCV NS3 helicase; [5]): < 10 µM

CCOC(=O)Cc1cn(Cc2csc3c(Cl)c(Cl)ccc23)c2cc(Br)ccc12 [Example 779]
IC50 (HCV NS3 helicase; [5]): > 50 µM

O=C(O)Cc1cn(Cc2csc3c(Cl)c(Cl)ccc23)c2cc(Br)ccc12 [Example 780]
IC50 (HCV NS3 helicase; [5]): > 50 µM

O=C(O)Cc1cn(Cc2csc3c(Cl)cccc23)c2cc(Br)ccc12 [Example 782]
IC50 (HCV NS3 helicase; [5]): > 50 µM

O=C(O)Cc1cn(Cc2csc3cccc(Cl)c23)c2cc(Br)ccc12 [Example 783]
IC50 (HCV NS3 helicase; [5]): 10 to 50 µM

O=C(O)Cc1cn(Cc2csc3cccc(Cl)c23)c2cc(Br)ccc12 [Example 784]
IC50 (HCV NS3 helicase; [5]): > 50 µM

O=C(O)Cc1cn(Cc2csc3cc(Cl)ccc23)c2cc(Br)ccc12 [Example 785]
IC50 (HCV NS3 helicase; [5]): > 50 µM

O=C(O)Cc1cn(Cc2csc3cc(Cl)cc(Cl)c23)c2cc(Br)ccc12 [Example 786]
IC50 (HCV NS3 helicase; [5]): > 50 µM

Nc1cc(N)cc(-c2ccc3c(CC(=O)O)cn(Cc4csc5cc(Cl)cc(Cl)c45)c3c2)c1 [Example 787]
IC50 (HCV NS3 helicase; [5]): 10 to 50 µM

Cc1sc2cc(Cl)c(F)cc2c1Cn1cc(CC(=O)O)c2ccc(-c3cc(N)cc(N)c3)cc21 [Example 788]
IC50 (HCV NS3 helicase; [5]): < 10 µM

N#Cc1ccc2c(CC(=O)O)cn(Cc3csc4ccc(Cl)cc34)c2c1 [Example 789]
IC50 (HCV NS3 helicase; [5]): 10 to 50 µM

Cc1sc2ccc(Cl)cc2c1Cn1cc(CC(=O)O)c2ccccc21 [Example 790]
IC50 (HCV NS3 helicase; [5]): > 50 µM

CCOC(=O)Cc1cn(Cc2cccc3nc(C)ccc23)c2cc(-c3cc(N)cc(N)c3)ccc12 [Example 791]
IC50 (HCV NS3 helicase; [6]): 10 to 50 µM

CCOC(=O)Cc1cn(Cc2csc3ccc(F)cc23)c2cc(-c3cc([N+](=O)[O-])cc([N+](=O)[O-])c3)ccc12 [Example 792]
IC50 (HCV NS3 helicase; [6]): > 50 µM

CCOC(=O)Cc1cn(Cc2cccc3sc(Cl)nc23)c2cc(-c3cc([N+](=O)[O-])cc([N+](=O)[O-])c3)ccc12 [Example 793]
IC50 (HCV NS3 helicase; [6]): 10 to 50 µM

CCOC(=O)Cc1cn(Cc2cccc3sc(Cl)nc23)c2cc(-c3cc(N)cc(N)c3)ccc12 [Example 794]
IC50 (HCV NS3 helicase; [6]): 10 to 50 µM

CCOC(=O)Cc1cn(C(=O)c2csc3ccc(Cl)cc23)c2cc(-c3cc([N+](=O)[O-])cc([N+](=O)[O-])c3)ccc12 [Example 795]
IC50 (HCV NS3 helicase; IC50 Activity, Table 38, compounds made using Scheme 56, Scheme 57 and Scheme 61): > 50 µM

CCCCCCCCCCCC[N+](C)(C)[O-] [LDAO, lauryl (dimethyl)-amine oxide]
Conclusion (effect of additive on NS3/4a protease reaction rate) (HCV NS3/4a protease): LDAO at 0.6 mM raised activity
Increase of NS3/4a protease activity (HCV NS3/4a protease; LDAO at 0.6 mM): significantly (~10-fold)

CCCCCCCCCCCC(=O)N(C)CC(=O)O [N-lauroylsarcosine]
Slope (NS3 Helicase; [7]): −0.53 mP/min
Activity (NS3 Helicase; [8]): 87%
Slope (NS3 Helicase; [9]): −0.28 mP/min
Activity (NS3 Helicase; [10]): 46%

[Cl-].[Na+] [NaCl]
Conclusion (effect of additive on NS3/4a protease reaction rate) (HCV NS3/4a protease): NaCl detrimental to activity

O=C(O)CCP(CCC(=O)O)CCC(=O)O [TCEP]
Conclusion (effect of additive on NS3/4a protease reaction rate) (HCV NS3/4a protease): detrimental to activity

CCCCCCCCCCCCCCCC[N+](C)(C)C.[Br-] [hexadecyltrimethylammonium bromide]
Slope (NS3 Helicase; [7]): 0.24 mP/min
Activity (NS3 Helicase; [8]): −39%
Slope (NS3 Helicase; [9]): 0.74 mP/min
Activity (NS3 Helicase; [10]): −121%

CCCCCCCCCCCCO[C@@H]1O[C@H](CO)[C@@H](O[C@H]2O[C@H](CO)[C@@H](O)[C@H](O)[C@H]2O)[C@H](O)[C@H]1O [laurylmaltoside]
Slope (NS3 Helicase; [7]): −0.8 mP/min
Activity (NS3 Helicase; [8]): 131%
Slope (NS3 Helicase; [9]): −1.23 mP/min
Activity (NS3 Helicase; [10]): 202%

CCCCCCCCO[C@@H]1O[C@H](CO)[C@@H](O)[C@H](O)[C@H]1O [β-octyl glucoside]
Slope (NS3 Helicase; [1]): −0.45 mP/min
Activity (NS3 Helicase; [2]): 74%
Slope (NS3 Helicase; [3]): −0.38 mP/min
Activity (NS3 Helicase; [4]): 62%

KGSVVIVGRIILSGRK [NS4a peptide, "The NS4a surrogate peptide used (…) was obtained from Midwest Biotech", reference compound]
Conclusion (effect of additive on NS3/4a protease reaction rate) (HCV NS3/4a protease): Best activity at 25 and 2500 μM

NS3 enzyme, benchmark wild-type full length enzyme derived from HCV genotype 1b-K2040
NS3/4a protease activity (reaction rate of NS3 catalyzed hydrolysis of 0.5 µM FRET substrate) (NS4a surrogate peptide): Best activity at 25 and 2500 µM

Pluronic F127
Activity (NS3 Helicase; no LDAO, detergent 0.020%): 126%
Slope (NS3 Helicase; no LDAO, detergent 0.020%): −0.48 mP/min
Activity (NS3 Helicase; no LDAO, detergent 0.075%): 155%
Slope (NS3 Helicase; no LDAO, detergent 0.075%): −0.59 mP/min
Slope (NS3 Helicase; [1]): −1.14 mP/min
Activity (NS3 Helicase; [2]): 300%
Slope (NS3 Helicase; [3]): −1.29 mP/min
Activity (NS3 Helicase; [4]): 339%

Triton X100
Activity (NS3 Helicase; no LDAO, detergent 0.020%): 66%
Slope (NS3 Helicase; no LDAO, detergent 0.020%): −0.25 mP/min
Activity (NS3 Helicase; no LDAO, detergent 0.075%): 53%
Slope (NS3 Helicase; no LDAO, detergent 0.075%): −0.2 mP/min
Slope (NS3 Helicase; [1]): −1.51 mP/min
Activity (NS3 Helicase; [2]): 397%
Slope (NS3 Helicase; [3]): −1.19 mP/min
Activity (NS3 Helicase; [4]): 313%

Triton X-100
Conclusion (effect of additive on NS3/4a protease reaction rate) (HCV NS3/4a protease): Improvement in activity at 12 μM
